# Assay results taken from article PMC3779320, “Bub3 reads phosphorylated MELT repeats to promote spindle assembly checkpoint signaling” (eLife, 2013).
# Residue numbers refer to the chain shown, from its start. Square brackets hold non-standard residues; d marks the D form. Peptide text beside a SMILES is read from it. pT = C[C@@H](OP(=O)(O)O)[C@H](N)C(=O)O
# Columns and labels:
# [1] = molecular target: T1, Bub1^289–359–Bub3 (Saccharomyces cerevisiae, UniProt P26449+P41695); assay: ITC binding of MELT peptides to Bub1^289–359–Bub3 (wild type); settings: 25°C, 20 mM Tris pH7.5, 150 mM NaCl, 1 mM DTE, complex 30 µM in cell, peptide 400 µM
# T1 construct: S. cerevisiae Bub1^289–359 and for full length Bub3; GST (N, cleaved yes); made in house; host or cells: E. coli BL21 DE3 plysS
# T1 sequence (P26449 1-341): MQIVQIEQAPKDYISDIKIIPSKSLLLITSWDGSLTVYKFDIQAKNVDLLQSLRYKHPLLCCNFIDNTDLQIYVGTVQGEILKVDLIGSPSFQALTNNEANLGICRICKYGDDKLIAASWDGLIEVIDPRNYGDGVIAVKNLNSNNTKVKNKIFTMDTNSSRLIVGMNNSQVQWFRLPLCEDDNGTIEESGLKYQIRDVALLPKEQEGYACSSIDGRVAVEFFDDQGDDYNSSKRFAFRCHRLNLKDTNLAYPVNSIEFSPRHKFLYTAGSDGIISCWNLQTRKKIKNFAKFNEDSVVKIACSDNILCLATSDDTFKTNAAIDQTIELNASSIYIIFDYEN
# T1 sequence (P41695 289-359): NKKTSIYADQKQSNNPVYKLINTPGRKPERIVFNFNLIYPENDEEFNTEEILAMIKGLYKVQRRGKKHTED
# Text: We generated recombinant ScBub1^289–359–Bub3 (where the Bub1 segment is equivalent to the minimal kinetochore targeting region of human Bub1 [[Krenn et al., 2012]]) by bacterial co-expression and purified it to homogeneity (Figure 1D). To assess whether Bub1–Bub3 binds directly to MELT^P sequences, we tested its ability to bind MELT sequences in quantitative isothermal titration calorimetry (ITC) binding experiments. 19-residue synthetic peptides encompassing the sequences of the second and fourth MELT^P motifs of Spc105/Knl1 (indicated as MELT2 and MELT4, respectively), each flanked by four and eleven residues on the N- and C-terminal ends, respectively, were tested (Figure 1C). […] Thus, ScBub1^289–359–Bub3 is sufficient for the reconstitution of tight interactions with two MELT^P peptides in vitro that recapitulate a salient feature of this interaction, its dependency on phosphorylation.
# cDNA sequences coding for S. cerevisiae Bub1^289–359 and for full length Bub3 were subcloned in the first and second cassettes of pGEX-6P-2rbs vector ([Ciferri et al., 2005]). In this construct, the cDNA encoding Bub1^289–359 was sub-cloned in frame with the gene encoding GST and a cleavage site for PreScission protease, and was translated from the first ribosome-binding site (rbs). Untagged Bub3 was subcloned downstream of the second rbs in the same vector. Expression was carried out in BL21 DE3 plysS cells in LB medium by auto-induction with 0.3% lactose at 18°C for approximately 16 hr. Cells were harvested by centrifugation and resuspended in Buffer A (20 mM Tris pH 7.5, 300 mM NaCl, 10% Glycerol, 1 mM DTE, 1 mM EDTA pH 8.0, 1 mM PMSF) typically at a dilution of 3 ml lysis buffer per ml of bacterial pellet. Cells were lysed by sonication, and the lysates were cleared by centrifugation at 75000 × g for 45 min. The resulting clear supernatant was incubated with gentle rotation with 1/50 (vol/vol) of GSH-sepharose slurry (GE Healthcare) for 1–2 hr at 4°C. Beads were washed with 150 vol of Buffer A. To elute the Bub1–Bub3 complex from beads, GST-PreScission protease (0.02 mg/mg of protein target) was added for 16 hr at 4°C. The eluate was concentrated on Amicon Ultra Centrifugal Filters MwCO 3000 (Merck Millipore, Billerica, MA) and further purified by size exclusion chromatography (SEC) on a Superdex 75 16/60 column using GF buffer (20 mM Tris pH 7.5, 150 mM NaCl, 1 mM DTE). The complex eluted in a single peak with apparently stoichiometric amounts of Bub1^289–359 and Bub3 and was subsequently concentrated to ∼10 mg/ml for crystallization or to 2–4 mg/ml for ITC experiments. […]
# (§1) Binding isotherm was measured at 25°C by isothermal titration calorimetry on a MicroCal ITC200 device (GE Healthcare, Piscataway, NJ). […]
# [2] = molecular target: T2, Bub1^289–359–Bub3^R239A (Saccharomyces cerevisiae, UniProt P26449+P41695, R239A); assay: ITC binding to Bub1^289–359–Bub3^R239A; settings: Bub3 R239A compared with wild type (13- to 25-fold for R217A or R239A)
# T2 construct: S. cerevisiae Bub1^289–359 and for full length Bub3; ITC experiments with the MELT2^P peptide and Bub1^289–359–Bub3^R239A; GST (N, cleaved yes); made in house; host or cells: E. coli BL21 DE3 plysS
# T2 sequence (P26449 1-341 R239A): T1 sequence (P26449 1-341) with R239A
# T2 sequence (P41695 289-359): T1 sequence (P41695 289-359)
# Text: Because the presence of a phosphate on Thr172^Spc105/Knl1 is essential for high-affinity binding of ScBub1^289–359–Bub3 to MELT^P peptides (Figure 1), we concentrated our mutational analysis on two residues that are directly implicated in the recognition of the peptide’s phospho-threonine, Arg217^Bub3 and Arg239^Bub3. Positively charged residues are invariant at these positions of the Bub3 alignment (Figure 2C). We generated single or double alanine mutants of Arg217^Bub3 and Arg239^Bub3 in the context of ScBub1^289–359–Bub3 and tested their binding affinity for the MELT2^P peptide by ITC.
# cDNA sequences coding for S. cerevisiae Bub1^289–359 and for full length Bub3 were subcloned in the first and second cassettes of pGEX-6P-2rbs vector ([Ciferri et al., 2005]). In this construct, the cDNA encoding Bub1^289–359 was sub-cloned in frame with the gene encoding GST and a cleavage site for PreScission protease, and was translated from the first ribosome-binding site (rbs). Untagged Bub3 was subcloned downstream of the second rbs in the same vector. Expression was carried out in BL21 DE3 plysS cells in LB medium by auto-induction with 0.3% lactose at 18°C for approximately 16 hr. […]
# as §1
smiles,measurement,setting,value
CC[C@H](C)[C@H](NC(=O)[C@H](CO)NC(=O)[C@H](CCCNC(=N)N)NC(=O)[C@@H]1CCCN1C(=O)[C@H](Cc1ccccc1)NC(=O)[C@@H](NC(=O)[C@H](CCC(=O)O)NC(=O)[C@@H](NC(=O)[C@H](CCSC)NC(=O)[C@H](CCC(=O)O)NC(=O)[C@H](CCSC)NC(=O)[C@H](CO)NC(=O)[C@@H](NC(=O)[C@@H]1CCCN1C(=O)[C@H](CC(=O)O)NC(C)=O)[C@@H](C)O)[C@@H](C)OP(=O)(O)O)C(C)C)C(=O)N[C@@H](CCCNC(=N)N)C(=O)N[C@@H](CCC(N)=O)C(=O)N[C@@H](CCCCN)C(=O)N[C@@H](CC(N)=O)C(N)=O [MELT2^P] (Ac-DPTSMEM[pT]EVFPRSIRQKN-NH2; N-terminus and C-terminus assumed),binding (in words),[1],no binding
same,fold reduction in binding affinity,[2],25 fold
